The values below come from PubChem BioAssay (NCI).

What all share (assay): NCI tumour cell line growth inhibition, 48 h
The test system of experiment [1] is 786-0 renal.
The test system of experiment [2] is CAKI-1 renal.
The subject of experiment [3] is COLO 205 colon.
Experiment [4] deals with HCC-2998 colon.
Experiment [5] deals with HCT-116 colon.
Experiment [6] has as its system HS 578T breast.
The test system of experiment [7] is HT29 colon.
In experiment [8] the test system is LOX IMVI melanoma.
Experiment [9] relates to MDA-MB-435.
For experiment [10], the system named is NCI-H460 lung.
In experiment [11] the test system is OVCAR-4 ovarian.
The subject of experiment [12] is PC-3 prostate.
Experiment [13] deals with RPMI-8226 leukemia.
Experiment [14] has as its system SF-295 CNS.
In experiment [15] the test system is SK-MEL-2 melanoma.
The test system of experiment [16] is SNB-75 CNS.
For experiment [17], the system named is SW-620 colon.

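Five concentrations, 48 hours, 96-well plates. Definition used: TGI = concentration required for complete inhibition of growth.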

On to `NC(=Nc1ccc(Cl)c(Cl)c1)c1ccccc1N`, for which the TGI in experiment [1] was over 100 µM; in experiment [2], over 100 µM; in experiment [3], 52.8 µM; in experiment [4], 34.2 µM; in [5], 57.1 µM; in experiment [6], 50 µM. Besides, the TGI was over 100 µM in experiment [7]; 69.3 µM in experiment [8]; 42.2 µM in experiment [9]; over 100 µM in experiment [10]; over 100 µM in [11]; 92.4 µM in [12]. In addition, the TGI is 39.3 µM in experiment [13]; over 100 µM in experiment [14]; 86.8 µM in experiment [15]; 75.7 µM in [16]; over 100 µM in experiment [17].
As to `CCOC(=O)c1c(-c2ccc(Cl)cc2)c(C#N)c(=S)n(C2OC(CO)C(O)C(O)C2O)c1-c1ccccc1` (stereo not drawn), the TGI came to 75.1 µM in experiment [1]; 82.6 µM in experiment [2]; 80.9 µM in [3]; 81.9 µM in experiment [4]; 35.3 µM in experiment [5]; 58.6 µM in [6]. Also, the TGI in [7] was 36.2 µM; in experiment [8] it was 33.5 µM; in experiment [9], 48.6 µM; in [10], 87.5 µM; in experiment [11], over 100 µM; in experiment [12], 50.4 µM. Besides, the TGI in [13] was over 100 µM; in [14], 40.3 µM; in experiment [15], 50.2 µM; in experiment [16], 87.3 µM; in [17], 46.7 µM.
With `COC(=O)C(Cc1ccccc1)C(=O)NC(CNC(=O)OCc1ccccc1)C(=O)OCc1ccccc1` (stereo not drawn), the TGI was 62.7 µM in experiment [1]; over 87.2 µM in experiment [2]; 37.7 µM in [3]; over 95.4 µM in experiment [4]; 77.9 µM in experiment [5]; over 100 µM in experiment [6]. Moreover, the TGI is over 61.2 µM in [7]; 36 µM in experiment [8]; 50 µM in experiment [9]; over 100 µM in [10]; over 100 µM in [11]; over 100 µM in [12]. Besides, the TGI is 50.2 µM in [13]; over 100 µM in experiment [14]; 97.4 µM in [15]; 64.8 µM in [16]; over 100 µM in experiment [17].
For `CC1(C)C[C@H]2C3=CC[C@@H]4[C@@]5(C)CC[C@H](O)C(C)(C)[C@@H]5CC[C@@]4(C)[C@]3(C)C[C@@H](O)[C@@]23C[C@@H]1OC3=O`, the TGI in [1], in experiment [2], in [3], in experiment [4], in [5] and in experiment [6] was over 100 µM in each case. Also, the TGI in experiment [7], in experiment [8], in [9], in experiment [10], in experiment [11] and in experiment [12] was over 100 µM throughout. The TGI in [13], in experiment [14], in experiment [15], in [16] and in experiment [17] was over 100 µM throughout.
